Results published in the supplement of paper PMC10307832.

What was measured:
Experiment in all cases: relative viability (nuclei count vs DMSO), 5 days (fraction); higher = more cells survive
[1] = compound: C1CN(CCC1C(C2=CC3=C(C=C2)OCO3)(C4=CC5=C(C=C4)OCO5)O)C(=O)OC6=CC=C(C=C6)[N+](=O)[O-] [JZL-184] + CCNC(=O)c1noc(-c2cc(C(C)C)c(O)cc2O)c1-c1ccc(CN2CCOCC2)cc1 [Luminespib] (partner 0.01 µM)
Outline: (§1)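 One day after seeding in 1536-well plates, lung cancer cell lines were dosed by pin tool. Dosing was either single-drug or a fixed anchor-drug dose plus five library-drug doses (not always all listed) in √10 steps. After 5 days, nuclei were stained in one fix-and-stain step and counted on 4× images, and relative viability is the nuclei count of treated wells over that of vehicle wells, given as the median of duplicate plates.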

[2] = compound: C1CN(CCC1C(C2=CC3=C(C=C2)OCO3)(C4=CC5=C(C=C4)OCO5)O)C(=O)OC6=CC=C(C=C6)[N+](=O)[O-] [JZL-184] + CS(=O)(=O)CCNCc1ccc(-c2ccc3ncnc(Nc4ccc(OCc5cccc(F)c5)c(Cl)c4)c3c2)o1 [Lapatinib] (partner 2 µM)
Outline: as §1

[3] = compound: C1CN(CCC1C(C2=CC3=C(C=C2)OCO3)(C4=CC5=C(C=C4)OCO5)O)C(=O)OC6=CC=C(C=C6)[N+](=O)[O-] [JZL-184] + CC(=O)Nc1cccc(-n2c(=O)n(C3CC3)c(=O)c3c(Nc4ccc(I)cc4F)n(C)c(=O)c(C)c32)c1 [Trametinib] (partner 0.02 µM)
Outline: as §1

[4] = compound: C1CN(CCC1C(C2=CC3=C(C=C2)OCO3)(C4=CC5=C(C=C4)OCO5)O)C(=O)OC6=CC=C(C=C6)[N+](=O)[O-] [JZL-184] + CC(=O)c1c(C)c2cnc(Nc3ccc(N4CCNCC4)cn3)nc2n(C2CCCC2)c1=O [Palbociclib] (partner 0.5 µM)
Outline: as §1

[5] = compound: C1CN(CCC1C(C2=CC3=C(C=C2)OCO3)(C4=CC5=C(C=C4)OCO5)O)C(=O)OC6=CC=C(C=C6)[N+](=O)[O-] [JZL-184] + CS(=O)(=O)N1CCN(Cc2cc3nc(-c4cccc5[nH]ncc45)nc(N4CCOCC4)c3s2)CC1 [Pictilisib] (partner 1 µM)
Outline: as §1

Row | Cell Line | relative viability ([1]; first compound 0.04 µM) | relative viability ([1]; first compound 0.4 µM) | relative viability ([1]; first compound 1.265 µM) | relative viability ([1]; first compound 4 µM) | relative viability ([2]; first compound 0.04 µM) | relative viability ([2]; first compound 0.4 µM) | relative viability ([2]; first compound 1.265 µM) | relative viability ([2]; first compound 4 µM) | relative viability ([3]; first compound 0.04 µM) | relative viability ([3]; first compound 0.4 µM) | relative viability ([3]; first compound 1.265 µM) | relative viability ([3]; first compound 4 µM) | relative viability ([4]; first compound 0.04 µM) | relative viability ([4]; first compound 0.4 µM) | relative viability ([4]; first compound 1.265 µM) | relative viability ([4]; first compound 4 µM) | relative viability ([5]; first compound 0.04 µM) | relative viability ([5]; first compound 0.4 µM) | relative viability ([5]; first compound 1.265 µM) | relative viability ([5]; first compound 4 µM)
1 | NCI-H322M | 0.91 | 0.797 | 0.889 | 0.705 | 0.654 | 0.599 | 0.562 | 0.578 | 0.456 | 0.48 | 0.513 | 0.482 | 0.483 | 0.449 | 0.509 | 0.451 | 0.494 | 0.472 | 0.554 | 0.495
2 | NCI-H358 | 0.387 | 0.279 | 0.308 | 0.304 | 0.52 | 0.418 | 0.448 | 0.436 | 0.146 | 0.133 | 0.148 | 0.15 | 0.138 | 0.142 | 0.137 | 0.129 | 0.353 | 0.399 | 0.319 | 0.444
3 | NCI-H460 | 0.0429 | 0.0344 | 0.0404 | 0.0362 | 1.86 | 0.894 | 1.09 | 0.881 | 0.22 | 0.145 | 0.213 | 0.099 | 0.147 | 0.0967 | 0.149 | 0.201 | 0.385 | 0.332 | 0.404 | 0.374
4 | NCI-H520 | 0.222 | 0.226 | 0.239 | 0.209 | 0.79 | 0.76 | 0.856 | 0.631 | 0.729 | 0.63 | 0.686 | 0.651 | 0.189 | 0.221 | 0.223 | 0.219 | 0.351 | 0.221 | 0.311 | 0.245
5 | NCI-H647 | 0.286 | 0.128 | 0.0998 | 0.216 | 1.35 | 0.969 | 1.28 | 1.14 | 0.455 | 0.41 | 0.562 | 0.504 | 0.369 | 0.285 | 0.407 | 0.359 | 0.495 | 0.294 | 0.566 | 0.468
6 | NCI-H650 | 0.854 | 0.647 | 0.802 | 0.806 | 0.916 | 0.793 | 1.07 | 0.894 | 1.06 | 0.871 | 0.963 | 0.995 | 0.358 | 0.292 | 0.321 | 0.317 | 1.08 | 0.857 | 0.884 | 0.876
7 | NCI-H661 | 0.969 | 0.898 | 0.938 | 0.975 | 0.505 | 0.481 | 0.637 | 0.382 | 0.606 | 0.531 | 0.548 | 0.586 | 0.408 | 0.378 | 0.399 | 0.403 | 0.372 | – | 0.455 | 0.452
8 | NCI-H727 | 0.343 | 0.286 | 0.375 | 0.355 | 0.92 | 0.688 | 0.862 | 0.807 | 0.416 | 0.366 | 0.414 | 0.39 | 0.64 | 0.708 | 0.63 | 0.738 | 0.505 | 0.393 | 0.333 | 0.473
9 | NCI-H838 | 0.287 | 0.281 | 0.274 | 0.258 | 1.19 | 1.04 | 1.16 | 0.94 | 0.65 | 0.569 | 0.543 | 0.477 | 0.22 | 0.259 | 0.235 | 0.199 | 0.53 | 0.449 | 0.499 | 0.482
10 | NCI-H1355 | 0.713 | 0.705 | 0.828 | 0.69 | 0.974 | 0.921 | 1.02 | 0.943 | 0.44 | 0.403 | 0.423 | 0.38 | 0.376 | 0.381 | 0.423 | 0.4 | 0.431 | 0.357 | 0.555 | 0.396
11 | NCI-H1395 | 0.63 | 0.788 | 0.675 | 0.738 | 0.997 | 0.953 | 0.91 | 0.995 | 1.09 | 0.996 | 1.01 | 0.875 | 0.661 | 0.598 | 0.63 | 0.573 | 0.596 | 0.536 | 0.761 | 0.551
12 | NCI-H1437 | 1.19 | 1.14 | 0.947 | 1.08 | 0.984 | 0.717 | 0.773 | 0.759 | 0.495 | 0.482 | 0.479 | 0.445 | 0.333 | 0.321 | 0.297 | 0.282 | 0.466 | 0.408 | 0.366 | 0.468
13 | NCI-H1650 | 0.225 | 0.207 | 0.216 | 0.178 | 0.821 | 0.735 | 0.939 | 0.718 | 0.778 | 0.403 | 0.801 | 0.657 | 0.395 | 0.368 | 0.408 | 0.302 | 0.734 | 0.53 | 0.741 | 0.696
14 | NCI-H1651 | 0.894 | 0.797 | 0.902 | 0.765 | 0.833 | 0.715 | 0.888 | 0.798 | 0.848 | 0.872 | 0.787 | 0.848 | 0.547 | 0.529 | 0.558 | 0.519 | 0.842 | 0.533 | 0.536 | 0.499
15 | NCI-H1666 | 1.13 | 1.02 | 0.999 | 0.912 | 0.647 | 0.65 | 0.585 | 0.633 | 0.888 | 0.828 | 0.856 | 0.839 | 0.685 | 0.642 | 0.636 | 0.668 | 0.483 | 0.517 | 0.5 | 0.491
16 | NCI-H1734 | 0.207 | 0.206 | 0.185 | 0.222 | 1.22 | 0.959 | 1.15 | 1.04 | 0.721 | 0.611 | 0.72 | 0.606 | 0.394 | 0.293 | 0.37 | 0.292 | 0.519 | 0.471 | 0.505 | 0.482
17 | NCI-H1755 | 0.598 | 0.418 | 0.26 | 0.405 | 1.02 | 1.01 | 1.07 | 0.962 | 0.748 | 0.747 | 0.802 | 0.77 | 0.44 | 0.451 | 0.473 | 0.452 | 0.432 | 0.339 | 0.545 | 0.401
18 | NCI-H1792 | 0.401 | 0.383 | 0.56 | 0.408 | 0.974 | 0.858 | 0.926 | 0.96 | 0.347 | 0.406 | 0.495 | 0.448 | 0.677 | 0.687 | 0.659 | 0.656 | 0.304 | 0.232 | 0.302 | 0.28
19 | NCI-H1793 | 0.162 | 0.165 | 0.153 | 0.156 | 0.853 | 0.492 | 0.812 | 0.422 | 0.433 | 0.481 | 0.455 | 0.438 | 0.271 | 0.285 | 0.281 | 0.312 | 0.295 | 0.214 | 0.344 | 0.31
20 | NCI-H1915 | 0.913 | 0.682 | 0.8 | 0.718 | 1.15 | 0.973 | 0.998 | 0.935 | 0.301 | 0.293 | 0.328 | 0.297 | 0.506 | 0.511 | 0.531 | 0.511 | 1.05 | 0.914 | 1.1 | 0.918
21 | NCI-H1944 | 0.615 | 0.682 | 0.766 | 0.754 | 0.805 | 0.803 | 0.875 | 0.846 | 0.438 | 0.385 | 0.452 | 0.417 | 0.338 | 0.289 | 0.347 | 0.328 | 0.345 | 0.318 | 0.34 | 0.335
22 | NCI-H1975 | 0.275 | 0.292 | 0.265 | 0.168 | 1.08 | 0.824 | 1.02 | 0.888 | 0.314 | 0.33 | 0.349 | 0.33 | 0.679 | 0.579 | 0.614 | 0.575 | 0.347 | 0.281 | 0.304 | 0.287
23 | NCI-H1993 | 0.846 | 0.745 | 0.885 | 0.968 | 0.767 | 0.807 | 0.827 | 0.885 | 0.496 | 0.51 | 0.517 | 0.559 | 0.707 | 0.604 | 0.758 | 0.604 | 0.721 | 0.864 | 0.847 | 0.794
24 | NCI-H2009 | 1.1 | 0.917 | 1.08 | 1.02 | 1.15 | 0.805 | 0.928 | 1.01 | 0.228 | 0.276 | 0.329 | 0.301 | 0.172 | 0.188 | 0.241 | 0.219 | 0.985 | 0.672 | 0.914 | 0.844
25 | NCI-H2023 | 0.958 | 0.624 | 0.918 | 0.575 | 1.14 | 0.853 | 0.964 | 0.802 | 0.717 | 0.612 | 0.568 | 0.54 | 0.56 | 0.354 | 0.393 | 0.249 | 0.27 | 0.22 | 0.301 | 0.241
26 | NCI-H2085 | 0.327 | 0.454 | 0.46 | 0.443 | – | 0.657 | 0.764 | 0.753 | – | 0.515 | 0.527 | 0.603 | – | 0.489 | 0.44 | 0.469 | 0.459 | 0.401 | 0.467 | 0.549
